PMC8247773, “Benzohydrazide and Phenylacetamide Scaffolds: New Putative ParE Inhibitors” (Frontiers in Bioengineering and Biotechnology, 2021)
In brackets after ≈: the same amount, converted by molar mass. Several values for one entry are separate records, joined by “and”; a condition that tells them apart may be missing. Identical values can stand only once.

Experiments:
Vero cells [1] = experiment: In vitro cytotoxicity MTT assay; settings: CC50 Vero cells / IC50
[2] = system: Escherichia coli (NCIM 2065); experiment: Antibacterial susceptibility test, microbroth dilution MIC; type: cell-based; settings: E. Coli (NCIM 2065); mean ± SD
[3] = system: Klebsiella pneumonia (NCIM 2706); set-up: method as in Yele et al., 2020, 2021; settings: ref Yele et al., 2020, 2021; cited from earlier work
[4] = system: Mycobacterium tuberculosis (NCIM 2984); set-up: method as in Yele et al., 2020, 2021; settings: ref Yele et al., 2020, 2021; cited from earlier work
[5] = system: Staphylococcus epidermis (NCIM 2493); set-up: method as in Yele et al., 2020, 2021; settings: ref Yele et al., 2020, 2021; cited from earlier work
MRSA (NCIM 5021) [6] = experiment: Antibacterial susceptibility test, microbroth dilution MIC; type: cell-based, methicillin-resistant Staphylococcus aureus; settings: mean ± SD
Vero cells [7] = system: Vero cells
[8] = system: Pseudomonas aeruginosa (NCIM 2036); set-up: method as in Yele et al., 2020, 2021; settings: ref Yele et al., 2020, 2021; cited from earlier work
MRSA (ATCC43300) [9] = experiment: Antibacterial susceptibility test, microbroth dilution MIC; type: cell-based, methicillin-resistant Staphylococcus aureus; settings: mean ± SD
[10] = system: Staphylococcus aureus (NCIM 5022); set-up: method as in Yele et al., 2020, 2021; settings: ref Yele et al., 2020, 2021; cited from earlier work
[11] = system: Bacillus subtilis (NCIM 2545); set-up: method as in Yele et al., 2020, 2021; settings: ref Yele et al., 2020, 2021; cited from earlier work
[12] = system: Escherichia coli (NCIM 2065); experiment: Minimum bactericidal concentration (MBC); type: cell-based; settings: E. Coli (NCIM 2065); for MBC/MIC: ratio ≤2 bactericidal, ≥4 tolerance
Experimental: (§1) MBC can be defined as the minimum concentration of a compound required to kill the bacteria over a fixed period under precise conditions. […] Colonies were counted, and colony forming unit (CFU) per milliliter was calculated.

MRSA (NCIM 5021) [13] = experiment: Minimum bactericidal concentration (MBC); type: cell-based, methicillin-resistant Staphylococcus aureus
Experimental: as §1

MRSA (ATCC43300) [14] = experiment: Minimum bactericidal concentration (MBC); type: cell-based, methicillin-resistant Staphylococcus aureus
Experimental: as §1

[15] = system: Escherichia coli (NCIM 2567); set-up: method as in Yele et al., 2020, 2021; settings: ref Yele et al., 2020, 2021; cited from earlier work
E. coli ParE enzyme = molecular target: T1, E. coli ParE enzyme (Escherichia coli, UniProt P20083); experiment: E. coli ParE ATPase enzyme inhibition assay (ProFoldin kit, malachite green); type: biochemical; settings: ATPase activity, mean ± SD (n = 3)
T1 construct: purchased ProFoldin, Hudson, United States
T1 sequence (P20083 whole entry): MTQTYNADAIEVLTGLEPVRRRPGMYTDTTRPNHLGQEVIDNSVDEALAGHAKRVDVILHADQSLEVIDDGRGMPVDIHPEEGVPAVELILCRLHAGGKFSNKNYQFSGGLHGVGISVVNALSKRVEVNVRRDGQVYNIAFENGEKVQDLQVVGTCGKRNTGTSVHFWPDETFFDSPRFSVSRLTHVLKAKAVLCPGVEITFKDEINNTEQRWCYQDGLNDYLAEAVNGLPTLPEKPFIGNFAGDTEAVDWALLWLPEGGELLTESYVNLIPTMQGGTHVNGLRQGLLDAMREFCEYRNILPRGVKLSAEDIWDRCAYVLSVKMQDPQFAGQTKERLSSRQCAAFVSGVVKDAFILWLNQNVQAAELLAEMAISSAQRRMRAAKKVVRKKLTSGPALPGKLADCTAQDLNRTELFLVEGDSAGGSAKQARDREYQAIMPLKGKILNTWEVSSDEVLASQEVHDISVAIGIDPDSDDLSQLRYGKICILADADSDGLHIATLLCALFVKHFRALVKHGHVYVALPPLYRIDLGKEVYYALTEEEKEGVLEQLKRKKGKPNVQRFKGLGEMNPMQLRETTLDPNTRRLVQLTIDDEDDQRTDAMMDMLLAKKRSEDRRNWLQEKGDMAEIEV
T1 sequence (P0AFI2 whole entry, further chain): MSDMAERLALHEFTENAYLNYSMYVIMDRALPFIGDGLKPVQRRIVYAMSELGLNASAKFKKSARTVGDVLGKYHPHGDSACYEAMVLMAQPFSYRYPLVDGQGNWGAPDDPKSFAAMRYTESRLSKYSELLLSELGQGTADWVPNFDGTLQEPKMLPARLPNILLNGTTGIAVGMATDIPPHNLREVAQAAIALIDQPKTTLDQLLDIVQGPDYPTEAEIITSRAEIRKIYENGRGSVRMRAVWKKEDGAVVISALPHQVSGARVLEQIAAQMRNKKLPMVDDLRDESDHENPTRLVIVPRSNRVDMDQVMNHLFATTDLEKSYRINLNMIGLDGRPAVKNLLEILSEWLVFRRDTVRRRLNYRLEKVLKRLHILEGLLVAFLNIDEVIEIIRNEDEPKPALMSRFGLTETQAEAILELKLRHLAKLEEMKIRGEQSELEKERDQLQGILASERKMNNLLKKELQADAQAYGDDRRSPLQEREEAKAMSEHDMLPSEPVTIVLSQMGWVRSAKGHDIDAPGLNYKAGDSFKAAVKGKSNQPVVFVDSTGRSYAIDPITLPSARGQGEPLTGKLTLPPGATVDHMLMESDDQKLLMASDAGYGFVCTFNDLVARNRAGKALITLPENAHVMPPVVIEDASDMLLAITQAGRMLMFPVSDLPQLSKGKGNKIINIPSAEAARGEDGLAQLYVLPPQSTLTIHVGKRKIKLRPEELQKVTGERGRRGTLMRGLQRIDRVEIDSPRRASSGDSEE
Experimental: The assay was performed as per the standard protocol provided by the ProFoldin. […] ParE hydrolyzes ATP as the source of molecular energy to perform decatenation reactions. Fluoroquinolones and aminocoumarins usually block ATPase activity to hinder the biological activities of topoisomerase II. Thus, the topoisomerase ATPase assay can be used for high-throughput screening of topoisomerase inhibitors. The ATPase activity of the E. coli ParE enzyme was based on the detection of inorganic phosphate produced by the hydrolysis of ATP in the presence of DNA. The phosphate is detected using a microplate reader at an absorbance wavelength of 650 nm. The selected compounds were tested for the inhibition of ATPase activity of ParE enzyme. […] The reaction mixture was incubated for 1 h at 37°C and then quenched with 45 μL of Dye. Incubate for 5 min, and the absorbance was measured at 650 nm. The IC50 values were determined from the absorbance readings using no enzyme and no compound controls. They were calculated using the non-linear regression curve fit method.

[16] = system: Salmonella typhi (NCIM 2501); set-up: method as in Yele et al., 2020, 2021; settings: ref Yele et al., 2020, 2021; cited from earlier work

Structure (SMILES)	SI (CC50/IC50) (Vero cells [1])	Minimum inhibitory concentration [2]	Minimum inhibitory concentration (MIC) K. p [3]	Minimum inhibitory concentration (MIC) M. t [4]	Minimum inhibitory concentration (MIC) S. e [5]	Minimum inhibitory concentration (MRSA (NCIM 5021) [6])	CC50 (Vero cells [7])	Minimum inhibitory concentration (MIC) P. a [8]	Minimum inhibitory concentration (MRSA (ATCC43300) [9])	Minimum inhibitory concentration (MIC) S. a [10]	Minimum inhibitory concentration (MIC) B. s [11]	MBC [12]	MBC/MIC [12]	MBC (MRSA (NCIM 5021) [13])	MBC/MIC (MRSA (NCIM 5021) [13])	MBC (MRSA (ATCC43300) [14])	MBC/MIC (MRSA (ATCC43300) [14])	Minimum inhibitory concentration (MIC) E. c [15]	IC50 against E. coli ParE enzyme (E. coli ParE enzyme)	Minimum inhibitory concentration (MIC) S. t [16]
O=C(COc1ccccc1NC(=O)CCl)Nc1ccc([N+](=O)[O-])cc1 [Compound 1]	216.0608	0.72 µg/mL and 0.72 ± 0.07 µg/mL	0.78	3.85	2.98	0.84 ± 0.13 µg/mL (≈ 2.31 µM)	213.9002 µg/mL (≈ 588 µM)	0.69	0.99 ± 0.24 µg/mL (≈ 2.72 µM)	2.56	3.62	1.42 ± 0.02 µg/mL (≈ 3.9 µM)	2	0.84 ± 0.13 µg/mL (≈ 2.31 µM)	1	0.99 ± 0.24 µg/mL (≈ 2.72 µM)	1	0.75	0.99 ± 0.01 µg/mL (≈ 2.72 µM)	
O=C(COc1ccccc1NC(=O)CCl)Nc1ccc(Cl)cc1 [Compound 2]		1.01 ± 0.19 µg/mL (≈ 2.86 µM)	2.95	4.52	0.92	2.41 ± 0.65 µg/mL (≈ 6.82 µM)		2.59	1.34 ± 0.49 µg/mL (≈ 3.79 µM)	0.69	0.72	2.00 ± 0.01 µg/mL (≈ 5.66 µM)	2	4.8 ± 0.21 µg/mL (≈ 13.6 µM)	2	2.71 ± 0.21 µg/mL (≈ 7.67 µM)	2	2.45	2.33 µg/mL (≈ 6.6 µM)	2.56
Cc1cccc([N+](=O)[O-])c1NC(=O)COc1ccccc1NC(=O)CCl [Compound 4]	169.0629	2.49 ± 0.31 µg/mL (≈ 6.59 µM)	11.90	0.75	2.05	2.69 ± 0.49 µg/mL (≈ 7.12 µM)	163.9911 µg/mL (≈ 434 µM)	19.90	2.52 ± 0.37 µg/mL (≈ 6.67 µM)	4.12	5.97	4.71 ± 0.03 µg/mL (≈ 12.5 µM)	2	8.00 ± 0.04 µg/mL (≈ 21.2 µM)	3	8.76 ± 0.21 µg/mL (≈ 23.2 µM)	3	4.45	0.95 µg/mL (≈ 2.51 µM)	
O=C(CCl)Nc1ccccc1OCC(=O)Nc1ccc([N+](=O)[O-])cc1[N+](=O)[O-] [Compound 7]	236.5585	0.83 ± 0.05 µg/mL (≈ 2.03 µM)	1.25	1.02	8.62	0.95 ± 0.06 µg/mL (≈ 2.32 µM)	224.7306 µg/mL (≈ 550 µM)	0.67	0.85 ± 0.09 µg/mL (≈ 2.08 µM)	5.78	6.56	0.83 ± 0.1 µg/mL (≈ 2.03 µM)	1	0.95 ± 0.06 µg/mL (≈ 2.32 µM)	1	0.85 ± 0.09 µg/mL (≈ 2.08 µM)	1	1.52	0.95 ± 0.06 µg/mL (≈ 2.32 µM)	
O=C(COc1ccccc1NC(=O)CCl)Nc1ccccc1 [Compound 9]		1.64 ± 0.10 µg/mL (≈ 5.14 µM)	3.81	8.65	0.98	1.71 ± 0.16 µg/mL (≈ 5.36 µM)		3.35	1.75 ± 0.21 µg/mL (≈ 5.49 µM)	1.52	4.42	3.68 ± 0.29 µg/mL (≈ 11.5 µM)	2	4.70 ± 0.41 µg/mL (≈ 14.7 µM)	3	6.29 ± 0.08 µg/mL (≈ 19.7 µM)	4	4.25	2.80 µg/mL (≈ 8.78 µM)	2.35
O=C(COc1ccccc1NC(=O)CCl)NNC(=O)c1ccc([N+](=O)[O-])cc1 [Compound 14]	179.8902	4.14 ± 0.07 µg/mL (≈ 10.2 µM)	0.98	2.56	5.61	4.35 ± 0.09 µg/mL (≈ 10.7 µM)	64.7605 µg/mL (≈ 159 µM)	1.98	0.94 ± 0.14 µg/mL (≈ 2.31 µM)	8.56	5.70		1			0.94 ± 0.14 µg/mL (≈ 2.31 µM)	1	0.80	0.36 ± 0.03 µg/mL (≈ 0.885 µM)	
O=C(COc1ccccc1NC(=O)CCl)NNc1ccc([N+](=O)[O-])cc1[N+](=O)[O-] [Compound 17]	175.3553	3.41 ± 0.25 µg/mL (≈ 8.05 µM)	1.26	0.98	3.56	3.71 ± 0.15 µg/mL (≈ 8.75 µM)	150.8056 µg/mL (≈ 356 µM)	0.98	3.23 ± 0.21 µg/mL (≈ 7.62 µM)	2.38	4.89	7.2 ± 0.7 µg/mL (≈ 17 µM)	2	7.46 ± 0.05 µg/mL (≈ 17.6 µM)	2			1.25	0.86 ± 0.12 µg/mL (≈ 2.03 µM)	
